According to patent US4710497A, “Method for percutaneously administering physiologically active agents” (Nitto Electric Industrial Co., Ltd., priority 1985, dated 1987):
Where two headings read alike, the source gives them in different places.

How the values were obtained:
[1] = Pharmacological (behavioral) signs after percutaneous diazepam in animal models, e.g. rhesus monkey; type: in vivo; settings: percutaneous administration, blood level of approximately 100 ng/ml
[2] = Description: Rat full thickness skins were used in the following two types of diffusion cell methods.
The skin was excised from the shaved abdominal site of deceased male albino rats weighing 250~300 g, and washed with normal saline solution after the subcutaneous fat was carefully removed with scissors.
Probl. Dermatol., Vol. 7, p. […] The rat skin was mounted horizontally in a diffusion cell apparatus; the exposed area of the skin approximated 0.7 cm^2.
The active agent/PEAC solution of known concentration was added to the upper compartment of the cell, which was exposed to the epithelial side of the skin and a normal saline solution was placed in the lower compartment.
The penetration rate was studied in a thermostated bath at 30° C.
(§1) In all instances the in vitro diffusion cell technique or the in vivo rhesus monkey test earlier described were used. In all instances analysis was by conventional HPLC (high pressure liquid chromatography). Details and citations are given for illustrative techniques.
Detection was in a conventional manner via HPLC using a mobile phase of 70% A (0.5 acetic acid (v/v) with 1.0 g/l sodium pentane sulfonate) and 30% B (90% acetonitrile and 10% H2 O (v/v) with 1.0 g/l sodium pentane sulfonate); the columnn was ASI C18 300×3.9 mm and the flow rate was 2 ml/min by UV at 267 nm.

Remark: listed apart in the source
in vivo = settings: rhesus monkey, topical or ocular, In Vivo - Monkey Plasma, 200 mg on 49 cm^2, 25% ethyl laurate in N-methyl pyrrolidone
Protocol: Male rhesus monkeys weighing 10-14 Kg each were used as the subject. An appropriate area of the monkey's chest was shaved 24 hours before drug application.
Drug formulations comprising the PEAC were applied to a certain area of the chest as indicated in each example. The monkey was restrained in a chair to prevent it from touching its chest.
Blood samples were taken at appropriate intervals after the application. The heparinized blood was centrifuged, and the plasma was removed and stored at -20° C. until analyzed. […]
To this solution was added 120 mg of Klucel® (cross-linked hydroxypropylcellulose type HF, Hercules Inc.) and the same stirred thoroughly to obtain a uniform gel.
1.0 ml of the gel was applied to 49 cm^2 of the chest area of the monkey; the applied area was left open to the air for the duration of the experiment.
as §1
To this solution was added 120 mg of hydroxypropylcellulose (Klucel® HF). […]

[3] = 2 hrs, I: 25 mg drug + 25% isopropyl myristate in N-methyl pyrrolidone
[4] = 2 hrs, II: 25 mg drug + 25% isopropyl myristate in N-methyl piperidone
[5] = 2 hrs, III: 25 mg drug + 25% isopropyl myristate in N-methyl caprolactam
[6] = 2 hrs, IV: 25 mg drug + 25% ethyl laurate in N-methyl pyrrolidone
[7] = 4 hrs, I: 25 mg drug + 25% isopropyl myristate in N-methyl pyrrolidone
[8] = 4 hrs, II: 25 mg drug + 25% isopropyl myristate in N-methyl piperidone
[9] = 4 hrs, III: 25 mg drug + 25% isopropyl myristate in N-methyl caprolactam
[10] = 4 hrs, IV: 25 mg drug + 25% ethyl laurate in N-methyl pyrrolidone
[11] = 6 hrs, I: 25 mg drug + 25% isopropyl myristate in N-methyl pyrrolidone
[12] = 6 hrs, II: 25 mg drug + 25% isopropyl myristate in N-methyl piperidone
[13] = 6 hrs, III: 25 mg drug + 25% isopropyl myristate in N-methyl caprolactam
[14] = 6 hrs, IV: 25 mg drug + 25% ethyl laurate in N-methyl pyrrolidone
[15] = 8 hrs, I: 25 mg drug + 25% isopropyl myristate in N-methyl pyrrolidone
[16] = 8 hrs, II: 25 mg drug + 25% isopropyl myristate in N-methyl piperidone
[17] = 8 hrs, III: 25 mg drug + 25% isopropyl myristate in N-methyl caprolactam
[18] = 8 hrs, IV: 25 mg drug + 25% ethyl laurate in N-methyl pyrrolidone
[19] = Comparative Composition B: active agent 3 g in 97 g dimethyl propionamide
[20] = Comparative Composition C: active agent 3 g in 97 g acetone, acetone evaporated off
[21] = Composition A: active agent 3 g in 97 g of 25 volume % isopropyl myristate in dimethyl propionamide

Compound | flux [2, 3] | flux [2, 4] | flux [2, 5] | flux [2, 6] | flux [2, 7] | flux [2, 8] | flux [2, 9] | flux [2, 10] | flux [2, 11] | flux [2, 12] | flux [2, 13] | flux [2, 14] | flux [2, 15] | flux [2, 16] | flux [2, 17] | flux [2, 18] | flux [19] | flux [20] | flux [21] | also measured
CN1C(=O)CN=C(c2ccccc2)c2cc(Cl)ccc21 [Diazepam, 7-Chloro-1,3-dihydro-1-methyl-5-phenyl-2H-1,4-benzodiazepine-2-one] | – | – | – | – | – | – | – | – | – | – | – | – | – | – | – | – | – | – | – | pharmacological (behavioral) signs [1]: produces pharmacological (behavioral) signs of therapeutic effectiveness
CC(C)Cc1ccc(C(C)C(=O)O)cc1 (stereo not drawn) [Ibuprofen, p-isobutylhydratropic acid] | 154.0 μg/cm^2 /hr | 142.0 μg/cm^2 /hr | 33.3 μg/cm^2 /hr | 192.8 μg/cm^2 /hr | 95.6 μg/cm^2 /hr | 79.2 μg/cm^2 /hr | 90.7 μg/cm^2 /hr | 93.0 μg/cm^2 /hr | 53.9 μg/cm^2 /hr | 46.1 μg/cm^2 /hr | 76.4 μg/cm^2 /hr | 47.5 μg/cm^2 /hr | 49.6 μg/cm^2 /hr | 40.4 μg/cm^2 /hr | 63.2 μg/cm^2 /hr | 40.0 μg/cm^2 /hr | 835 μg/cm^2 /24 hrs | 242 μg/cm^2 /24 hrs | 1085 μg/cm^2 /24 hrs | –
COc1ccc2c(c1)c(CC(=O)O)c(C)n2C(=O)c1ccc(Cl)cc1 [Indomethacin, 1-(p-chlorobenzoyl)-5-methoxy-2-methylindole-3-acetic acid] | 65.1 μg/cm^2 /hr | 55.7 μg/cm^2 /hr | 11.3 μg/cm^2 /hr | 89.5 μg/cm^2 /hr | 39.0 μg/cm^2 /hr | 49.3 μg/cm^2 /hr | 56.8 μg/cm^2 /hr | 63.7 μg/cm^2 /hr | 21.5 μg/cm^2 /hr | 29.3 μg/cm^2 /hr | 41.3 μg/cm^2 /hr | 23.0 μg/cm^2 /hr | 13.2 μg/cm^2 /hr | 15.1 μg/cm^2 /hr | 21.8 μg/cm^2 /hr | 13.9 μg/cm^2 /hr | 150 μg/cm^2 /24 hrs | 30 μg/cm^2 /24 hrs | 394 μg/cm^2 /24 hrs | concentration at 1 h (in vivo; 1 hour): 370 ng/mL; concentration at 2 h (in vivo; 2 hours): 505 ng/mL; concentration at 3 h (in vivo; 3 hours): 420 ng/mL; concentration at 5 h (in vivo; 5 hours as printed): 110 ng/mL; concentration at 5 h (in vivo; 5 hours): 225 ng/mL
COC(=O)C1=C(C)NC(C)=C(C(=O)OC)C1c1ccccc1[N+](=O)[O-] [Nifedipine] | – | – | – | – | – | – | – | – | – | – | – | – | – | – | – | – | – | – | – | flux ([2]; 2 hrs, V (control): 25 mg drug in 1 ml N-methyl pyrrolidone): < 2 μg/cm^2 /hr; flux ([2]; 4 hrs, V (control): 25 mg drug in 1 ml N-methyl pyrrolidone): 2.7 μg/cm^2 /hr; flux ([2]; 6 hrs, V (control): 25 mg drug in 1 ml N-methyl pyrrolidone): 8.1 μg/cm^2 /hr; flux ([2]; 8 hrs, V (control): 25 mg drug in 1 ml N-methyl pyrrolidone): 3.9 μg/cm^2 /hr
O=C(O)c1ccccc1Nc1cccc(C(F)(F)F)c1 [flufenamic acid, N-(3'-trifluoro-methylphenyl)-anthranilic acid] | – | – | – | – | – | – | – | – | – | – | – | – | – | – | – | – | 311 μg/cm^2 /24 hrs | 26 μg/cm^2 /24 hrs | 598 μg/cm^2 /24 hrs | –
